Where two headings read alike, the source gives them in different places.
How the values were obtained:
[1] = tested on: metrazol-induced seizures; experiment: Time course of antimetrazol activity of prodrugs; format: in vivo, mice (CF1); conditions: Mus musculus, 60 mg/kg ip
[2] = tested on: metrazol induced convulsions; experiment: Inhibition of metrazol induced convulsions (Table 2); format: in vivo, mice; conditions: Mus musculus; inhibition of metrazol induced convulsions; read-out: Anti-Metrazol ED50
Description: Experiments were also performed to determine the physiological relevance of these interactions by measuring the ability of the compound of and used in the invention to modulate TBPS-induced convulsions in Swiss-Webster mice. […] The time to onset of myoclonus (presence of forelimb clonic activity) induced by TBPS was determined by observing each mouse for a period of 45 minutes. Significant differences between the time to onset in control mice vs. steroid-treated mice were determined by Student's t-test. […] The number of animals with tonic and/or clonic convulsions was recorded. In the maximal electroshock test, 50 mA of current at 60 Hz was delivered through corneal electrodes for 200 msec to induce tonic seizure. […] The ED50 (the dose at which the half-maximal effect occurs) was determined for each screen.
Adult male CFI mice (20-30g) were used in these studies. […] Percent protection against metrazol-induced seizures was plotted against time after administration of the compound. […] Ten to twelve mice were used per dose of test drug. […] The number of animals with tonic and/or clonic convulsions was recorded. The ability of the steroid to abolish the tonic component was defined as the endpoint. Sedative potential was determined by a rotorod test where the number of mice staying on a rotating (6 rpm) rod for ≥1 min. in each of three trials was determined.

[3] = target: GABA receptor-chloride ionophore complex (GR complex); experiment: [35S]TBPS binding modulation assay; conditions: for IC50: read-out: IC50, inhibition of [35S]-TBPS binding, +5 μM GABA, in the presence of 5 μM GABA; for Max. Inhib., maximal % of specifically bound [35S]-TBPS displaced: saturating concentrations of test compound
[4] = target: T1, progesterone receptor (Bos taurus, UniProt F1N712); experiment: Inhibition of 3H-progesterone binding to bovine uteral progesterone receptors
T1 construct: from tissue; host or cells: bovine uterus cytosol
T1 sequence (F1N712 1-914): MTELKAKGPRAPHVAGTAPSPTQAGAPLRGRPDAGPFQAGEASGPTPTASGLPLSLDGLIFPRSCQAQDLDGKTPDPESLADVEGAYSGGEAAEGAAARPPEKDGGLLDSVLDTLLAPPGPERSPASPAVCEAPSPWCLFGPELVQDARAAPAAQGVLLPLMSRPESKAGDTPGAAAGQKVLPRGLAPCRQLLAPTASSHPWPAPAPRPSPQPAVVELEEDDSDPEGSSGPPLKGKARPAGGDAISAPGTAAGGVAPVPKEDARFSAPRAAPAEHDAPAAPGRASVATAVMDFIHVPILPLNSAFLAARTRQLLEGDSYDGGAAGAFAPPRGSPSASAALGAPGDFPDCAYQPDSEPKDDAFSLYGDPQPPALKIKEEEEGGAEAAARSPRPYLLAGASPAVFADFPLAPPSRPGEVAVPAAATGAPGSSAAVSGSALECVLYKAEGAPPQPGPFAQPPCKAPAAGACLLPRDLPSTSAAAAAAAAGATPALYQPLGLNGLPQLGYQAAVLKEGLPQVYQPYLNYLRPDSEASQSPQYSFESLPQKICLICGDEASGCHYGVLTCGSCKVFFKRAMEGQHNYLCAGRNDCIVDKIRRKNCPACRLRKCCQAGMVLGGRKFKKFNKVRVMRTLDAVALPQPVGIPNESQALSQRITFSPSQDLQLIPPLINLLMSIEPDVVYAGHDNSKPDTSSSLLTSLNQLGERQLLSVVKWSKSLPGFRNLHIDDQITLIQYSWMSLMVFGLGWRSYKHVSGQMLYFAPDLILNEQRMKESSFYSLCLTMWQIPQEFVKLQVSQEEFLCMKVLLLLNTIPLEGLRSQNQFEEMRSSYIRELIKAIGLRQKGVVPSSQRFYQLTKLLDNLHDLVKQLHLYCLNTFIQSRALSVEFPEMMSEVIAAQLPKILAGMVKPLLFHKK
Description: The hormonal activity of drugs described herein was further studied through testing their potential estrogenic, progestinic, mineralocorticoid and glucocorticoid activities. These activities were analyzed by monitoring the ability of the drugs to inhibit binding of the steroid hormones to their respective hormone receptors.
For the data presented in Table 9, bovine uteri cytosol was isolated as they were for Table 7 and used for following binding to progesterone receptors by following the inhibition of ^3 H-progesterone, the natural ligand.

[5] = tested on: GABA receptor complex (36Cl uptake, cerebral cortical synaptoneurosomes); experiment: GABA-stimulated 36Cl uptake in rat cerebral cortical synaptoneurosomes; format: biochemical, rat (male Sprague-Dawley)
Description: In addition, the ability of the BZ clonazepam to modulate ^36 Cl uptake in the presence or absence of 5α-pregnandiol was evaluated.
The homogenate was diluted to a final volume of 40 mL with buffer and filtered through three layers of Nylon mesh (160 μm).
Aliquots of membrane preparation (200 μL) were preincubated at 30° C. for 10 min. The interaction was initiated by the simultaneous addition of drugs/steroids and 0.2 mL ^36 Cl (New England Nuclear Boston, Mass., 0.55 mCi/mmol, 0.8 μCi/ml) resulting in a total incubation volume of 0.4 mL. Steroids and test drugs were solubilized in dimethylsufoxide (DMSO) and added to the reaction mixture in 2 μL aliquots. An equal volume of vehicle was always included in the control reaction mixture. The mixture was gently mixed and ^36 Cl uptake terminated after 5 sec by the of 5 mL of ice cold buffer containing 100 μM picrotoxin (Sigma Chem Co.) followed immediately by rapid filtration through glass fiber filters (Whatman GF/C) under vacuum. The filters were washed twice with 5 mL of ice-cold buffer and the filter-bound radioactivity quantitated by liquid scintillation spectrophotometry. Specific uptake was calculated by subtracting the amount of ^36 Cl bound to the filters in the absence of synaptoneurosomes from that observed in their presence. Percent enhancement represents percent increase in uptake over that of basal ^36 Cl uptake. Statistical comparisons utilized the analysis of variance (ANOVA).

[6] = tested on: open-field activity; experiment: Open-field activity test; format: in vivo, mice (male N.I.H. Swiss-Webster)
Description: (§1) The light/dark transition test (Crawley and Goodwin, 1980) is based on the observation that rodents naturally tend to explore novel environments, but open, brightly lit arenas are aversive to the rodents and inhibit exploratory behavior (Christmas and Maxwell, 1970; File, 1980). […] Similar to the light/dark transition test, the open-field test measures the antagonism between the tendency to explore a novel environment and the tendency to remain still in an aversive environment (brightly lit arena). […] The open-field test provides a simple, non-punished assessment of the potential anxiolytic properties of novel compounds. Finally, 3α-OH-DHP was tested for anxiolytic properties in a Vogel conflict paradigm. The ability of BZs to attenuate the suppression of behavior by punishment in conflict paradigms is well established (Gellar et al., 1962; Vogel et al., 1971).
(§2) Male N.I.H. Swiss-Webster mice (Harlan) weighing 15-20 g were used in all experiments. The mice were housed 4/cage in polyethylene cages with sawdust bedding. The colony room was environmentally controlled (22° C.) with a 12 hr. light/dark cycle (0600-1800 hrs.). The mice had free access to food and water. The experiments were run from 0700-1500 hrs. and groups were counterbalanced for time of day effects.
As a secondary measure of anxiolytic effects, naive mice were placed in the center of a large, brightly lit plexiglass box (42×42×30.5 cm) and the total distance traveled was measured during a 10 min. test period. […] The Digiscan Activity Monitor (Omnitech Electronics, Columbus, Ohio) includes 16 photobeams that surround the box. The activity monitor is linked to a computer through a Digiscan Analyzer (Omnitech Electronics) and the data is analyzed using the Integrated Lab Animal Monitoring System (Omnitech Electronics). The mice were administered drugs as described for light/dark transitions.
(§3) 2-Hydroxypropyl β-cyclodextrin Diazepam and chlordiazepoxide are available from Sigma, Co. (St. Louis, Mo.). CGS-8216 was obtained from Ciba-Geigy (Summit, N.J.). All drugs were dissolved in 20% β-cyclodextrin in water and sonicated overnight. All drugs were administered intraperitoneally in a volume of 100 μL/20 g. CGS-8216 was administered subcutaneously in a volume of 100 μL/20 g.
(§4) The vehicle control data were analyzed across test days using an 1-way analysis of variance (ANOVA). […] The dose-response curves were then analyzed using an 1-way ANOVA, followed by Dunnett's t-test for individual comparisons between doses and control. The open-field and habituated locomotor data were analyzed using ANOVA followed by Dunnett's t-test. […] All data is expressed as the mean±S.E.M.

[7] = tested on: number of light/dark transitions (anxiety); experiment: Light/dark transition test; format: in vivo, mice (male N.I.H. Swiss-Webster); conditions: 3α-OH-DHP 10, 20, 40 mg/kg; 5α-THDOC 20 mg/kg; diazepam 1.0, 5.0, 10, 20 mg/kg; 20 mg/kg
Description: as §1, §2
The method used was previously described by Crawley and Goodwin (1980). The apparatus included a large box (26×33×24 cm) connected to a small box (15×22×14 cm) through an opening (5×6 cm). The large box was brightly lit with a standard 100W light bulb, while the small box was kept dark. Following pretreatment with a test drug, mice were placed in the center of the large box and the number of transitions between the large and small boxes was counted for 10 min. […] During the antagonist studies, CGS-8216 was administered 30 min. prior to the test drug.
as §3, §4

[8] = 1 hr, read-out: Antimetrazol activity, % of animals protected, 1 hr
[9] = 4 hr, read-out: Antimetrazol activity, % of animals protected, 4 hr

Structure (SMILES)	responders at 60 mg/kg [1, 8]	ED50 [2]	IC50 [3]	Max. Inhib., maximal % of specifically bound [35S]-TBPS displaced [3]	other results
CC(=O)OCC(=O)[C@H]1CC[C@H]2[C@@H]3CC[C@H]4C[C@H](O)CC[C@]4(C)[C@H]3CC[C@]12C	50%				responders at 60 mg/kg [1, 9]: 0%
CC(=O)OCC(=O)[C@H]1CC[C@H]2[C@@H]3CC[C@H]4C[C@H](OC(C)=O)CC[C@]4(C)[C@H]3CC[C@]12C	0%				responders at 60 mg/kg [1, 9]: 0%
CC(=O)OCC(=O)[C@H]1CC[C@H]2[C@@H]3CC[C@H]4C[C@H](OC(=O)C(C)C)CC[C@]4(C)[C@H]3CC[C@]12C	63%				responders at 60 mg/kg [1, 9]: 13%
CCO[C@H]1C[C@@]2(C)[C@@H](CC[C@@H]3[C@@H]2CC[C@]2(C)[C@@H](C(C)=O)CC[C@@H]32)C[C@@H]1O [2β-ETHOXY-3α-HYDROXY-5α-PREGNAN-20-ONE, 2β-Ethoxy-3α-hydroxy-5α-pregnan-20-one]		6 mg/kg	97 nM	100%	
CO[C@H]1C[C@@]2(C)[C@@H](CC[C@@H]3[C@@H]2CC[C@]2(C)[C@@H](C(C)=O)CC[C@@H]32)C[C@@H]1O [2β-METHOXY-3α-HYDROXY-5α-PREGNAN-20-ONE, 2β-Methoxy-3α-hydroxy-5α-pregnan-20-one]		60 mg/kg	66 nM	100%	
CC(=O)[C@H]1CC[C@H]2[C@@H]3CC[C@H]4C[C@](C)(O)CC[C@]4(C)[C@H]3CC[C@]12C [3α-HYDROXY-3β-METHYL-5α-PREGNAN-20-ONE, 3α-hydroxy-3β-methyl-5α-pregnan-20-one]		9 mg/kg	60 nM	100%	inhibition at 10 µM ([4]; read-out: % of inhibition of 3H-progesterone binding, A, competitor 10^-5 M, 0.15 nM 3H-progesterone): 10%; inhibition at 1 µM ([4]; read-out: % of inhibition of 3H-progesterone binding, A, competitor 10^-6 M, 0.15 nM 3H-progesterone): 4%; inhibition at 10 µM ([4]; read-out: % of inhibition of 3H-progesterone binding, B, competitor 10^-5 M, 0.25 nM 3H-progesterone): 5%; inhibition at 1 µM ([4]; read-out: % of inhibition of 3H-progesterone binding, B, competitor 10^-6 M, 0.25 nM 3H-progesterone): 2%
CC(=O)[C@H]1CC[C@H]2[C@@H]3CCC4=C[C@H](O)CC[C@]4(C)[C@H]3CC[C@]12C [3α-HYDROXY-4-PREGNEN-20-ONE]		20 mg/kg	154 nM	80%	
CN1CCc2cc3c(cc2[C@H]1[C@@H]1OC(=O)c2c1ccc1c2OCO1)OCO3 [(+)bicuculline, reference compound]					block of the stimulatory effect of GABA on 36Cl uptake ([5]; (+)bicuculline 10 μM, GABA 25 μM): completely block; % enhancement of basal 36Cl uptake ([5]; GABA (25 μM) + (+)bicuculline (10 μM)): 3 ± 2%
CC(=O)O[C@@H]1CC[C@@]2(C)[C@@H](CC[C@@H]3[C@@H]2CC[C@]2(C)[C@@H](C(C)=O)CC[C@@H]32)C1 [CH3]	25%				
CC(=O)[C@H]1CC[C@H]2[C@@H]3CC[C@H]4C[C@@H](O)CC[C@]4(C)[C@H]3CC[C@]12C [Example 3β-OH-DHP, 3β-hydroxy-5α-pregnan-20-one, reference compound]			> 100000 nM	33%	IC50, inhibition of [35S]-TBPS binding, No GABA ([3]; washed synaptoneurosomes, no GABA added): Inactive; total distance, open-field ([6]; 20 mg/kg, 10 min, vehicle 2004.6 ± 134.6): 1979.8 ± 174.5 cm; effect on open-field activity ([6]; steroids 20 mg/kg, diazepam 10 mg/kg): did not show any effect; effect on number of light/dark transitions (words) [7]: did not produce an anxiolytic effect
NCCCC(=O)O [GABA, gamma-aminobutyric acid]					shift of [35S]TBPS dose-response curve by (+)bicuculline ([3]; 0.5-3.0 μM bicuculline, FIGS. 1A, 1B): classical parallel shift; % enhancement of basal 36Cl uptake ([5]; GABA (25 μM) alone): 133 ± 6%

From patent US5232917A, “Methods, compositions, and compounds for allosteric modulation of the GABA receptor by members of the androstane and pregnane series” (priority 1991, dated 1993)
